Source: patent US8957049B2, “Inhibitors of fatty acid amide hydrolase” (Infinity Pharmaceuticals, Inc., priority 2008, dated 2015)
pKi: −log10 of the molar value.

Target: T1, human FAAH (Homo sapiens, UniProt O00519)
T1 construct: host or cells: COS-7 cells, transient transfection (FuGENE 6); 13,000 g membrane fraction solubilised in 1% Triton X-100
T1 sequence (O00519 1-579): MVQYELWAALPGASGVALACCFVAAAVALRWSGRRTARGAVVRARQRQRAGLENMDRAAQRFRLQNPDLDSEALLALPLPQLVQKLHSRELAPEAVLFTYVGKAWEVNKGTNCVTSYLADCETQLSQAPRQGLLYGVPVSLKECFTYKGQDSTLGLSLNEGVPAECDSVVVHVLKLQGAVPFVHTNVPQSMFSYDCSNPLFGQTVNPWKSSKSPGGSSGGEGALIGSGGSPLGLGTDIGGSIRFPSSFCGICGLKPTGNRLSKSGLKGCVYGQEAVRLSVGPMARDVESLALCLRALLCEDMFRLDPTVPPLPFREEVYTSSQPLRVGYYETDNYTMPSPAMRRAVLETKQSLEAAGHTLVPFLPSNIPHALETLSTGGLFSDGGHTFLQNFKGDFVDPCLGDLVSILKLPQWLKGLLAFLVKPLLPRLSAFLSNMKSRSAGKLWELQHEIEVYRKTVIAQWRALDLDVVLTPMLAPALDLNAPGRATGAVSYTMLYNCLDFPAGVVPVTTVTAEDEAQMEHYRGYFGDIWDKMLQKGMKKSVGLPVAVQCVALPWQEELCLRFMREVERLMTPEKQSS
Assay: Human FAAH biochemical inhibition assay (AMC arachidonoyl amide fluorescence)
Details: class given in each Example, read-out: Activity (Ki, inhibition of human FAAH)
Experimental: Exemplary compounds are set forth in the Examples provided below. Compounds were assayed as inhibitors of human FAAH using the method described in detail in Example 286.
The following assays may be used to determine the inhibition of FAAH by the compounds of the present invention: (1) a fluorescence-based assay for fatty acid amide hydrolase compatible with high-throughput screening as described in Manjunath et al., Analytical Biochemistry (2005) 343:143-151; and (2) a high-throughput screening for the discovery of inhibitors of fatty acid amide hydrolase using a microsome-based fluorescent assay. Wang et al., Biomolecular Screening (2006) 1-9.
COS-7 cells were split the day before, 1:5 into 150 mm×25 mm cell culture dishes (Corning Inc., Cat. No. 430599). Transient transfection took place at 30-40% confluency according to FuGENE 6 Transfection Reagent (Roche, Cat. No. 11814 443 001).
The FuGENE transfection 6 reagent (45 uL) was added to 1410 μL of media (DMEM, serum free without pen/strep) in a 15 mL conical tube and incubated at room temp for 5 minutes, followed by the addition of FAAH plasmid DNA (15 μg) (OriGene Cat. No. TC119221, Genbank Accession No. NM_001441.1, 0.67 ug/uL) and a further incubation of 15 minutes at room temperature. The resulting solution was added into one dish of 30-40% confluent COS-7 cells in a drop-wise manner. The COS-7 cell dish was subsequently incubated for 48 hours. The cells are then harvested.
Media was aspirated from the dishes and the cells rinsed with 10 mL PBS. The PBS was removed and 3 mL of PBS added to the dish. The dish was scraped to resuspend the cells, and the subsequent cell suspension collected into a 15 mL conical tube. The cells were pelleted by centrifugation at 1200 rpm for 5 minutes in a bench top centrifuge. PBS was removed and the cell pellet snap frozen in liquid nitrogen and stored at −80° C.
COS-7 Cells—FAAH Purification: • (1) Fractionation: Frozen cell pellets from transient transfections were thawed on ice and resuspended in 12.5 mM Hepes pH 8.0, 100 mM NaCl, 1 mM EDTA (10 mL/0.2 g cell pellet). The pellets were dounce homogenized and then sonicated to produce cell extract. The cell extract was subsequently centrifuged at 1000 g to remove cellular debris. The pellet was discarded and the supernatant centrifuged at 13,000 g for 20 minutes. The pellet contained membrane bound FAAH. The supernatant was discarded and the pellet resolubilized. • (2) Re-solubilization: The fraction of interest, (13,000 g, membrane fraction) was re-suspended in 2.3 mL re-suspension buffer (20 mM Hepes pH 7.8, 10% v/v Glycerol, 1 mM EDTA, 1% Triton X-100) and the sample incubated on ice for 1 hour and then centrifuged to remove any particulate matter. The supernatant containing solubilized human FAAH was aliquoted and snap frozen in liquid nitrogen and stored at −80° C. until use. • (3) Characterization: Protein Concentration determined by Bradford assay. • SDS gel and Western blot to confirm presence of FAAH • FAAH activity assay • Km determination—96-well assay • Linear dependence—96-well assay • Standard compound Ki determination—384-well assay
Rat FAAH biochemical assays were carried out in a 96 well flat bottom black non-treated polystyrene plates (Corning Costar Catalogue #3915). FAAH reaction buffer: 50 mM Hepes (pH 7.5), 1 mM EDTA, 0.2% Triton X-100. FAAH substrate—AMC Arachidonoyl Amide (Cayman Chemicals Company, Catalog #10005098). The reaction was read in an Envision microtiter plate reader [Excitation filter 355 nm (40 nm bandpass); Emmision filter 460 nm (25 nm bandpass)]. The raw fluorescence was plotted on the y axis and the inhibitor concentration on the x axis to give a dose response inhibition curve. The data was fitted to a single site competitive inhibition equation, fixing the Km for the rat and human enzyme to 12 μM and 9 μM respectively. […]

SMILES | pKi
OB(O)c1cccc(-c2nnc(-c3ccccc3)o2)c1 [Compound 63] | 6.00 to 7.00
OB(O)c1ccc(Cc2nnc(-c3ccccc3)o2)cc1 [Compound 64] | 7.00 to 8.00
OB(O)c1ccc(-c2nnc(-c3ccccn3)o2)cc1 [Compound 65] | 7.00 to 8.00
COc1cccc(-c2nnc(-c3ccc(B(O)O)cc3)o2)c1 [Compound 66] | ≥ 8.00
OB(O)c1ccc(-c2nnc(-c3ccccc3)o2)c(F)c1 [Compound 67] | 7.00 to 8.00
OB(O)c1ccc(-c2nnc(-c3ccccc3)o2)c(Cl)c1 [Compound 68] | ≥ 8.00
OB(O)c1ccc(-c2nnc(Cc3ccccc3)o2)cc1F [Compound 69] | 7.00 to 8.00
OB(O)c1ccc(-c2nnc(Cc3ccccc3)o2)cc1 [Compound 70] | ≥ 8.00
OB(O)c1ccc(-c2nnc(-c3ccccc3)o2)cc1 [Compound 71] | ≥ 8.00
CCCc1nnc(-c2ccsc2B(O)O)o1 [Compound 72] | < 6.00
CC(C)(O)c1nnc(-c2ccc(B(O)O)cc2)o1 [Compound 73] | 7.00 to 8.00
CCOCc1nnc(-c2ccc(B(O)O)cc2)o1 [Compound 74] | 7.00 to 8.00
COCc1nnc(-c2ccc(B(O)O)cc2)o1 [Compound 75] | ≥ 8.00
CCCc1nnc(-c2ccc(B(O)O)c(-c3nnc(CCC)o3)c2)o1 [Compound 76] | ≥ 8.00
CC(C)(C)c1nnc(-c2ccc(B(O)O)cc2)o1 [Compound 77] | ≥ 8.00
C=CCCCc1nnc(-c2ccc(B(O)O)cc2)o1 [Compound 78] | ≥ 8.00
OB(O)c1ccc(-c2nnc(-c3ccccc3)o2)cc1F [Compound 79] | 7.00 to 8.00
OB(O)c1ccc(-c2nnc(-c3ccccc3)o2)c(C(F)(F)F)c1 [Compound 81] | 6.00 to 7.00
CC(C)(C)OC(=O)NCCc1nnc(-c2ccc(B(O)O)cc2)o1 [Compound 82] | 7.00 to 8.00
CC(C)(C)OC(=O)NCc1nnc(-c2ccc(B(O)O)cc2)o1 [Compound 83] | 7.00 to 8.00
NCCc1nnc(-c2ccc(B(O)O)cc2)o1 [Compound 84] | < 6.00
CC(=O)NCCc1nnc(-c2ccc(B(O)O)cc2)o1 [Compound 85] | 6.00 to 7.00

SMILES | pKi
COC(=O)NCCc1nnc(-c2ccc(B(O)O)cc2)o1 [Compound 86] | 7.00 to 8.00
Cc1nc2cc(B(O)O)ccc2s1 [Compound 88] | 6.00 to 7.00
COCCCc1cn(-c2ccccc2)nc1-c1ccc(B(O)O)cc1 [Compound 92] | < 6.00
COCc1cc(OCCc2ccccc2)ccc1B(O)O [Compound 95] | 7.00 to 8.00
OCc1cc(OCc2ccccc2)ccc1B(O)O [Compound 96] | < 6.00
OB(O)c1ccc(OCCc2ccccc2)cc1COCc1ccccc1 [Compound 97] | < 6.00
O=Cc1cc(OCCc2ccccc2)ccc1B(O)O [Compound 98] | ≥ 8.00
COC(=O)/C=C/c1cc(OCCc2ccccc2)ccc1B(O)O [Compound 100] | ≥ 8.00
COC(=O)/C=C/c1ccsc1B(O)O [Compound 101] | 6.00 to 7.00
COC(=O)CCc1cc(OCCc2ccccc2)ccc1B(O)O [Compound 102] | 7.00 to 8.00
CN(C)C(=O)/C=C/c1cc(OCCc2ccccc2)ccc1B(O)O [Compound 103] | 7.00 to 8.00
OB1ON=Cc2cc(OCCc3ccccc3)ccc21 [Compound 104] | 7.00 to 8.00
OB1ON=Cc2cc(OCc3ccccc3)ccc21 [Compound 105] | 7.00 to 8.00
[O-]/[N+](=C\c1cc(OCc2ccccc2)ccc1B(O)O)Cc1ccccc1 [Compound 106] | 6.00 to 7.00
OCCN1N=Cc2cc(OCCc3ccccc3)ccc2B1O [Compound 107] | < 6.00
CN1N=Cc2cc(OCCc3ccccc3)ccc2B1O [Compound 108] | < 6.00
OB1c2ccc(OCc3ccccc3)cc2C=NN1Cc1ccccc1 [Compound 109] | 7.00 to 8.00
CN(Cc1ccccc1)Cc1cc(OCc2ccccc2)ccc1B(O)O [Compound 110] | 6.00 to 7.00
OB(O)c1ccc(OCc2ccccc2)cc1CNCc1ccccc1 [Compound 111] | 6.00 to 7.00
O=C(/C=C/c1ccccc1B(O)O)NCc1ccccc1 [Compound 112] | 6.00 to 7.00
CC(C)(C)OC(=O)Nc1cccc(NC(=O)/C=C/c2ccccc2B(O)O)c1 [Compound 113] | < 6.00
CN(Cc1ccccc1)C(=O)/C=C/c1ccccc1B(O)O [Compound 114] | 6.00 to 7.00

SMILES | pKi
OB(O)c1ccc(OCc2ccccc2)cc1/C=N/OCc1ccccc1 [Compound 115] | 7.00 to 8.00
O=C(CCc1ccccc1)N/N=C/c1ccccc1B(O)O [Compound 116] | < 6.00
CC(C)(C)OC(=O)NCC(=O)N/N=C/c1cc(OCc2ccccc2)ccc1B(O)O [Compound 117] | 7.00 to 8.00
NCC(=O)N/N=C/c1cc(OCc2ccccc2)ccc1B(O)O [Compound 118] | < 6.00
O=C(CCN1C(=O)C=CC1=O)N/N=C/c1cc(OCCc2ccccc2)ccc1B(O)O [Compound 119] | ≥ 8.00
CC(=O)N/N=C/c1cc(OCCc2ccccc2)ccc1B(O)O [Compound 120] | ≥ 8.00
O=C(Cc1ccccc1)N/N=C/c1ccccc1B(O)O [Compound 121] | < 6.00
O=C(Cc1c[nH]c2ccccc12)N/N=C/c1ccccc1B(O)O [Compound 122] | < 6.00
Cc1nc(CC(=O)N/N=C/c2ccccc2B(O)O)cs1 [Compound 123] | < 6.00
O=C(Cc1ccccc1)N/N=C/c1cc(OCc2ccccc2)ccc1B(O)O [Compound 124] | 7.00 to 8.00
O=C(N/N=C/c1cc(OCc2ccccc2)ccc1B(O)O)c1cccnc1 [Compound 125] | 7.00 to 8.00
OB(O)c1ccc(-c2cn(Cc3ccc(C(F)(F)F)cc3)nn2)cc1 [Compound 127] | 6.00 to 7.00
COc1cccc(Cn2cc(-c3ccc(B(O)O)cc3)nn2)c1 [Compound 128] | 7.00 to 8.00
Cc1cccc(Cn2cc(-c3ccc(B(O)O)cc3)nn2)c1 [Compound 129] | ≥ 8.00
OB(O)c1ccc(-c2cn(-c3ccccc3)nn2)cc1 [Compound 130] | 7.00 to 8.00
OB(O)c1ccc(-c2cn(-c3ccccc3)nn2)cc1F [Compound 134] | 7.00 to 8.00
OB(O)c1ccc(-c2cn(Cc3ccccc3)nn2)cc1F [Compound 137] | 7.00 to 8.00
OB(O)c1ccc(-c2cnnn2Cc2ccccc2)cc1F [Compound 138] | 6.00 to 7.00
OB(O)c1ccc(-n2cc(-c3ccccc3)nn2)cc1F [Compound 141] | 7.00 to 8.00
OB(O)c1ccc(-n2nncc2-c2ccccc2)cc1F [Compound 142] | 6.00 to 7.00
OB(O)c1ccc(-n2cc(-c3ccccc3)nn2)cc1 [Compound 143] | ≥ 8.00
OB(O)c1ccc(-n2nncc2-c2ccccc2)cc1 [Compound 144] | 7.00 to 8.00
